We go through six molecules from patent publication US4542210A, “1-β-D-Arabinofuranosyl-(E)-5-(2-halogenovinyl)-uracil-5'-phosphate, preparation thereof and use thereof” (Yamasa Shoyu Kabushiki Kaisha, priority 1981, dated 1985).

In general, solubility refers to how much of the substance goes into solution per volume. As usually defined, the LD50 is the dose expected to kill half of the subjects tested.

Converted amounts (≈) assume the structure as drawn. Counter-ions that a name gives are not always drawn. Like-named read-outs stand apart in the source and are kept apart here.

One series deals with HSV-1-VR-3. As to the kind of experiment: Antiviral activity in human embryonic lung fibroblasts (method of Sidwell et al), HSV-1-VR-3. Type of series: cell-based, herpes simplex virus type 1 strain VR3. Details: MIC: minimum inhibitory concentration at which HSV induced cytopathogenic effects were depressed more than 50%: unit not given here. On the procedure:
(§1) According to the method of Sidwell et al (Applied Microbiology, 22, (5), 797 (1971)), with the use of human embryonic lung fibroblasts, the antiviral activities of BVAUP and CVAUP were tested, with BVAU, CVAU and 5-iodo-2'-deoxyuridine (IDU) as controls.
(§2) effects were depressed more than 50%;
^1 HSV1-VR-3: herpes simplex virus type 1 strain VR3

A short description of a further series: Solubility in water. Type of series: physicochemical.
The test system of a further series is HSV-2-MS. As to the kind of experiment: Antiviral activity in human embryonic lung fibroblasts (method of Sidwell et al), HSV-2-MS. Type of series: cell-based, herpes simplex virus type 2 strain MS. Also on record: MIC: minimum inhibitory concentration at which HSV induced cytopathogenic effects were depressed more than 50%: unit not given here. The protocol:
as §1, §2
^2 HSV2-MS: herpes simplex virus type 2 strain MS

The subject of series [1] is RE strain of HSV (type 1). Kind of series: Ulcerative herpetic keratitis in pigmented rabbits, ointment treatment. The class given is in vivo, RE strain; pigmented rabbits. Details: Effect (lesion inhibition): unit not given here. The settings on record: for Effect (lesion inhibition): control 0; for % score: control 100. On the procedure: (1) Pigmented rabbits, weighing between 2.0 and 3.0 kg, were anesthetised with intravenous pentobarbital sodium (30 mg/kg) and given a retrobulbar injection of 0.5 ml of 1% procaine. For inoculation a suspension of the RE strain of HSV (type 1) was drawn into a fine glass capillary tube (British Journal of Ophthalmology, Vol. 63, No. 6, 425-428 (1979).
After inoculation the eye was left open for 30 seconds and then the lids were closed with cellophane tape. The same procedure was repeated on the other eye. In one group of 3 rabbits the right eyes were treated with 1% BVAUP ointment and the left eyes with 1% BVAU ointment, or vice versa. In another group 3 eyes received no treatment as controls. The treatment was started 48 hours after inoculation and continued every 2 hours during the daytime 5 times a day for 4 days. The eyes were examined 48 hours after inoculation and then every 24 hours with a photo-slit lamp after applying 1% Bengal rose. Each inoculation site was scored according to the extent of the circumference infected.
The total daily score for each eye was calculated and expressed as a percentage of the score (percentage score) immediately before treatment. The therapeutic efficacies of BVAUP and BVAU against ulcerative herpetic keratitis were compared by calculating their average percentage scores.
(2) 0.3% BVAUP ointment and 3% BVAUP ointment were respectively prepared, and were subjected to the similar pharmacological test as shown in (1).

In a further series the test system is type 2 herpes (HSV-2). As to the kind of experiment: Antiviral activity against HSV-2 compared with HSV-1 or VZV (general statement).
Series [2] is described as follows: Acute toxicity (LD50) in mice. The settings on record: mouse, in vivo.
[3] abbreviates: 1% ointment, 5 times a day for 4 days.
[4] abbreviates: 1% ointment, 5 times a day for 4 days, control 97.0.

`O=c1[nH]c(=O)n([C@@H]2O[C@H](CO)[C@@H](O)[C@@H]2O)cc1/C=C/Br` [BVAU, 1-β-D-arabinofuranosyl-(E)-5-(2-bromovinyl)uracil, reference compound]: in the series on HSV-1-VR-3, the “MIC: minimum inhibitory concentration at which HSV induced cytopathogenic effects were depressed more than 50%” value is listed as 0.032 and the “VR: virus rating” value is given as 3.7. In “Solubility in water”, this molecule came in with a solubility of 4 mg/mL (≈ 11.5 mM). Moreover, in the series on HSV-2-MS, the “MIC: minimum inhibitory concentration at which HSV induced cytopathogenic effects were depressed more than 50%” value stood at 32 and the “VR: virus rating” value was determined as 1.1. For the same molecule, in series [1] (setting [3]), the “Effect (lesion inhibition)” value worked out at 43.0 and the “% score” value came to 57.0%. Moreover, the “Total score per eye” value in series [1] (setting [4]) is listed as 55.3.

Regarding `O=c1[nH]c(=O)n([C@@H]2O[C@H](COP(=O)(O)O)[C@@H](O)[C@@H]2O)cc1/C=C/Br` [BVAUP, 1-β-D-arabinofuranosyl-(E)-5-(2-bromovinyl)uracil-5'-phosphate], the “MIC: minimum inhibitory concentration at which HSV induced cytopathogenic effects were depressed more than 50%” value with HSV-1-VR-3 is 0.032; with HSV-2-MS it was 32. For the same molecule, the “VR: virus rating” value with HSV-1-VR-3 amounted to 3.8; in the series with HSV-2-MS it was 1.1. In addition, in the series on type 2 herpes (HSV-2), the “antiviral activity against HSV-2” value is recorded as “lower than that against the type 1 herpes (HSV-1) or VZV”. The LD50 in series [2] (ip, intraperitoneally, read-out: LD50, intraperitoneal) is 1730 mg/kg; in series [2] (iv, intravenously, read-out: LD50, intravenous) it was 1610 mg/kg. In addition, the results for the “Effect (lesion inhibition)” value in series [1] (0.3% ointment), in series [1] (setting [3]) and in series [1] (3% ointment) were 38.3, 53.9 and 71.9, respectively. Besides, the “Total score per eye” value in series [1] (0.3% ointment, control 88.7) stood at 54.7; in series [1] (setting [4]), 44.7; in series [1] (3% ointment, control 114.0), 32.0. Also, the “% score” value in series [1] (0.3% ointment) came out at 61.7%; in series [1] (setting [3]), 46.1%; in series [1] (3% ointment), 28.1%.

Turning to `O=c1[nH]c(=O)n([C@@H]2O[C@H](CO)[C@@H](O)[C@@H]2O)cc1/C=C/Cl` [CVAU, 1-β-D-arabinofuranosyl-(E)-5-(2-chlorovinyl)uracil], the “MIC: minimum inhibitory concentration at which HSV induced cytopathogenic effects were depressed more than 50%” value against HSV-1-VR-3 was 0.032; against HSV-2-MS it was 100. In addition, the “VR: virus rating” value with HSV-1-VR-3 came to 3.7; in the series on HSV-2-MS it was 0.7.

Consider `O=c1[nH]c(=O)n([C@@H]2O[C@H](COP(=O)(O)O)[C@@H](O)[C@@H]2O)cc1/C=C/Cl` [CVAUP, 1-β-D-arabinofuranosyl-(E)-5-(2-chlorovinyl)uracil-5'-phosphate], for which, in the series with HSV-1-VR-3, the “MIC: minimum inhibitory concentration at which HSV induced cytopathogenic effects were depressed more than 50%” value is listed as 0.032 and the “VR: virus rating” value came out at 3.7. Also, in the series on HSV-2-MS, the “MIC: minimum inhibitory concentration at which HSV induced cytopathogenic effects were depressed more than 50%” value is reported as 320 and the “VR: virus rating” value is 0.5.

For `O=c1[nH]c(=O)n([C@H]2C[C@H](O)[C@@H](CO)O2)cc1I` [IDU, 5-iodo-2'-deoxyuridine], in the series with HSV-1-VR-3, the “MIC: minimum inhibitory concentration at which HSV induced cytopathogenic effects were depressed more than 50%” value is 3.2 and the “VR: virus rating” value came out at 2.4. In the series on HSV-2-MS, the “MIC: minimum inhibitory concentration at which HSV induced cytopathogenic effects were depressed more than 50%” value stood at 3.2 and the “VR: virus rating” value is on record as 2.2.

For `O=c1[nH]c(=O)n([C@@H]2O[C@H](COP(=O)(O)O)[C@@H](O)[C@@H]2O)cc1/C=C/Br` [disodium salt of 1-β-D-arabinofuranosyl-(E)-5-(2-bromovinyl)uracil-5'-phosphate], the solubility in “Solubility in water” was roughly 500 mg/mL.
